# Data taken from US20060069132A1, “Azolecarboxamide herbicides” (priority 2004, published 2006).
# Tests used:
# pigweed = experiment: Test B pre-/postemergence herbicide test; type: in vivo, Amaranthus retroflexus
# How it was run: (§1)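 Test chemicals in a non-phytotoxic solvent mixture with surfactant were applied preemergence to seeded species and postemergence to plants 2-18 cm tall (1- to 4-leaf stage); rice and barnyardgrass were also tested in a flooded paddy at the 2-leaf stage. Visual rating versus controls after 13-15 days in greenhouse, scale 0 (no effect) to 100 (complete control).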
# rice [1] = experiment: Test B flooded paddy test; type: in vivo, Oryza sativa; conditions: 1000 g ai/ha, scale 0 to 100 (0 no effect, 100 complete control)
# How it was run: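 Paddy species grown to the 2-leaf stage under flooding; blackgrass sprayed postemergence at 2–18 cm (1- to 4-leaf stage). Plants kept in a greenhouse for 13 to 15 days, then visually rated against controls on 0 (no effect) to 100 (complete control).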
# wheat = experiment: Test B postemergence herbicide test; type: in vivo, Triticum aestivum; design: key to Wheat plant response rating: 0 = no effect, 100 = complete control
# How it was run: (§2)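 Formulated test chemicals went onto postemergence plants measuring 2 to 18 cm, at one to four leaves. For the paddy assay, species had reached two leaves. Scoring took place 13–15 days later by eye, relative to untreated plants, using 0 for no effect up to 100 for full control.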
# cocklebur = experiment: Test B pre-/postemergence herbicide test; type: in vivo, Xanthium strumarium
# How it was run: (§3)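 Response was scored visually 13 to 15 days after treatment against untreated greenhouse controls, 0 meaning no effect and 100 complete control. Formulations (solvent mixture plus surfactant) went onto soil after planting, onto foliage of 1- to 4-leaf plants, and onto 2-leaf plants in a flooded paddy set including rice and barnyardgrass.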
# blackgrass = experiment: Test B postemergence herbicide test; type: in vivo, Alopecurus myosuroides
# How it was run: (§4)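 Visual control ratings, 0–100 versus untreated controls, taken after 13 to 15 days in the greenhouse. Blackgrass received a postemergence spray at the 1- to 4-leaf stage (2–18 cm); ducksalad, umbrella sedge and barnyardgrass were flooded-paddy treated at 2 leaves.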
# [2] = test system: small flower umbrella sedge; experiment: Test B flooded paddy test; type: in vivo, Cyperus difformis; conditions: 1000 g ai/ha, scale 0 to 100 (0 no effect, 100 complete control)
# How it was run: as §4
# Surinam grass = experiment: Test B pre-/postemergence herbicide test; type: in vivo, Urochloa decumbens
# How it was run: as §1
# corn = experiment: Test B pre-/postemergence herbicide test; type: in vivo, Zea mays
# How it was run: as §1
# large crabgrass = experiment: Test B pre-/postemergence herbicide test; type: in vivo, Digitaria sanguinalis
# How it was run: as §1
# barnyardgrass [3] = experiment: Test B flooded paddy test; type: in vivo, Echinochloa crus-galli; conditions: 1000 g ai/ha, scale 0 to 100 (0 no effect, 100 complete control)
# How it was run: as §4
# wild oat = experiment: Test B postemergence herbicide test; type: in vivo, Avena fatua
# How it was run: as §2
# lambsquarters = experiment: Test B pre-/postemergence herbicide test; type: in vivo, Chenopodium album; conditions: for Lambsquarters plant response rating: scale 0 (no effect) to 100 (complete control)
# How it was run: as §1
# rice [4] = experiment: Test B pre-/postemergence herbicide test; type: in vivo, Oryza sativa; conditions: preemergence
# Excerpt: Seeds selected from barnyardgrass (Echinochloa crus-galli (L.) Beauv.), Surinam grass (Urochloa decumbens (Staph) R. D. Webster, previously named Brachiaria decumbens Stapf), cocklebur (Xanthium strumarium L.), corn (Zea mays L.), large crabgrass (Digitaria sanguinalis (L.) Scop.), giant foxtail (Setaria faberi Herim.), lambsquarters (Chenopodium album L.), morningglory (Ipomoea coccinea L.), pigweed (Amaranthus retroflexus L.), rice (Oryza sativa L.) and velvetleaf (Abutilon theophrasti Medik.) were planted and treated preemergence with test chemicals formulated in a non-phytotoxic solvent mixture which included a surfactant.
# At the same time, plants selected from these crop and weed species and also blackgrass (Alopecurus myosuroides Huds.), wheat (Triticum aestivum L.) and wild oat (Avena fatua L.) were treated with postemergence applications of test chemicals formulated in the same manner. Plants ranged in height from 2 to 18 cm (1- to 4-leaf stage) for postemergence treatments. Plant species in the flooded paddy test consisted of rice (Oryza sativa L.), small flower umbrella sedge (Cyperus difformis L.), ducksalad (Heteranthera limosa (Sw.) Willd.) and barnyardgrass (Echinochloa crus-galli (L.) Beauv.) grown to the 2-leaf stage for testing. Treated plants and controls were maintained in a greenhouse for 13 to 15 days, after which time all species were compared to controls and visually evaluated. Plant response ratings, summarized in Table B, are based on a scale of 0 to 100 where 0 is no effect and 100 is complete control. A dash (-) response means no test result.
# giant foxtail = experiment: Test B pre-/postemergence herbicide test; type: in vivo, Setaria faberi
# How it was run: as §1
# morningglory = experiment: Test B pre-/postemergence herbicide test; type: in vivo, Ipomoea coccinea
# How it was run: as §3
# barnyardgrass [5] = experiment: Test B pre-/postemergence herbicide test; type: in vivo, Echinochloa crus-galli; conditions: for Barnyardgrass plant response rating: scale 0 (no effect) to 100 (complete control)
# How it was run: as §3
# velvetleaf = experiment: Test B pre-/postemergence herbicide test; type: in vivo, Abutilon theophrasti
# How it was run: as §1
# ducksalad [6] = experiment: Test B flooded paddy test; type: in vivo, Heteranthera limosa; conditions: 1000 g ai/ha, scale 0 to 100 (0 no effect, 100 complete control)
# How it was run: as §4
# ducksalad [7] = experiment: Test C flooded paddy test; type: in vivo, Heteranthera limosa
# barnyardgrass [8] = experiment: Test C flooded paddy test; type: in vivo, Echinochloa crus-galli
# How it was run: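 Greenhouse test with a 12–14 day hold after application and visual comparison with controls. Emerged plants were 1- to 4-leaf stage (2–18 cm) when sprayed postemergence, and the paddy barnyardgrass was at 2 leaves under flooded conditions. 100 = complete control.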
# rice [9] = experiment: Test C flooded paddy test; type: in vivo, Oryza sativa
# How it was run: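 Injury scored visually against controls on a 0 (no effect) to 100 (complete control) scale, 12 to 14 days after treatment in greenhouse. Flooded paddy plants treated at 2-leaf stage; postemergence plants at 1- to 4-leaf stage, 2 to 18 cm tall.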
# [10] = test system: smallflower umbrella sedge; experiment: Test C flooded paddy test; type: in vivo, Cyperus difformis
# [11] = 500 g ai/ha, visual rating 0-100, 0 no effect, 100 complete control, preemergence
# [12] = postemergence, 125 g ai/ha, visual rating, scale 0 (no effect) to 100 (complete control)
# [13] = postemergence, 500 g ai/ha, visual rating, scale 0 (no effect) to 100 (complete control)
# [14] = preemergence, 125 g ai/ha, 0 to 100 scale, 0 is no effect, 100 is complete control
# [15] = postemergence, 125 g ai/ha, visual rating
# [16] = postemergence, 500 g ai/ha, visual rating
# [17] = 125 g ai/ha, 0 is no effect, 100 is complete control, preemergence
# [18] = Postemergence, 500 g ai/ha, scale 0 (no effect) to 100 (complete control)
# [19] = postemergence, 125 g ai/ha, scale 0 to 100
# [20] = 125 g ai/ha, scale 0 to 100 (0 no effect, 100 complete control)
# [21] = 250 g ai/ha, scale of 0 to 100, 0 is no effect, 100 is complete control
# [22] = 500 g ai/ha, visual rating after 12 to 14 days, scale 0 to 100 (0 no effect, 100 complete control)
smiles,measurement,setting,value
CCOC(=O)c1ccnc(NC(=O)c2cc(C(C)(C)C)nn2CC)c1 [Compound 157],"Plant response rating, Pigweed",pigweed; [11],40
same,Pigweed plant response rating,pigweed; [12],40
same,Pigweed plant response rating,pigweed; [13],80
same,"Plant response rating, Pigweed",pigweed; [14],0
same,Rice plant response rating,"rice [1]; visual rating, 13 to 15 days",30
same,Wheat plant response rating,wheat; [13],20
same,"Plant response rating, Cocklebur",cocklebur; [11],20
same,Cocklebur plant response rating,cocklebur; [12],10
same,Cocklebur plant response rating,cocklebur; [13],90
same,"Plant response rating, Cocklebur",cocklebur; [14],0
same,Blackgrass plant response rating,blackgrass; [12],10
same,Blackgrass plant response rating,blackgrass; [13],20
same,"Sedge, Umbrella plant response rating","[2]; visual rating, 13 to 15 days",40
same,"Plant response rating, Surinam Grass",Surinam grass; [11],0
same,Surinam Grass plant response rating,Surinam grass; [12],20
same,Surinam Grass plant response rating,Surinam grass; [13],20
same,"Plant response rating, Surinam Grass",Surinam grass; [14],0
same,"Plant response rating, Corn",corn; [11],0
same,Corn plant response rating,corn; [12],0
same,Corn plant response rating,corn; [13],0
same,"Plant response rating, Corn",corn; [14],0
same,"Plant response rating, Crabgrass, Large",large crabgrass; [11],20
same,"Crabgrass, Large plant response rating",large crabgrass; [12],0
same,"Crabgrass, Large plant response rating",large crabgrass; [13],20
same,"Plant response rating, Crabgrass, Large",large crabgrass; [14],0
same,Barnyardgrass plant response rating,"barnyardgrass [3]; visual rating, 13 to 15 days",20
same,"Oat, Wild plant response rating",wild oat; [12],10
same,"Oat, Wild plant response rating",wild oat; [13],40
same,"Plant response rating, Lambsquarters",lambsquarters; [11],30
same,Lambsquarters plant response rating,lambsquarters; [15],20
same,Lambsquarters plant response rating,lambsquarters; [16],70
same,"Plant response rating, Lambsquarters",lambsquarters; [14],0
same,"Plant response rating, Rice","rice [4]; 500 g ai/ha, visual rating 0-100, 0 no effect, 100 complete control",0
same,"Plant response rating, Rice","rice [4]; 125 g ai/ha, 0 to 100 scale, 0 is no effect, 100 is complete control",0
same,"Plant response rating, Foxtail, Giant",giant foxtail; [11],0
same,"Foxtail, Giant plant response rating",giant foxtail; [12],30
same,"Foxtail, Giant plant response rating",giant foxtail; [13],40
same,"Plant response rating, Foxtail, Giant",giant foxtail; [14],0
same,"Plant response rating, Morningglory",morningglory; [11],40
same,Morningglory plant response rating,morningglory; [12],0
same,Morningglory plant response rating,morningglory; [13],30
same,"Plant response rating, Morningglory",morningglory; [14],0
same,"Plant response rating, Barnyardgrass",barnyardgrass [5]; [11],0
same,Barnyardgrass plant response rating,barnyardgrass [5]; [15],0
same,Barnyardgrass plant response rating,barnyardgrass [5]; [16],20
same,"Plant response rating, Barnyardgrass",barnyardgrass [5]; [14],0
same,"Plant response rating, Velvetleaf",velvetleaf; [11],0
same,Velvetleaf plant response rating,velvetleaf; [12],50
same,Velvetleaf plant response rating,velvetleaf; [13],80
same,"Plant response rating, Velvetleaf",velvetleaf; [14],0
same,Ducksalad plant response rating,"ducksalad [6]; visual rating, 13 to 15 days",0
CCN(C)C(=O)c1cccc(NC(=O)c2nn(C(C)C)nc2C)c1 [Compound 407],"Plant response rating (0 to 100 scale), Pigweed",pigweed; [17],50
same,Pigweed plant response rating,pigweed; [18],40
same,Pigweed plant response rating,pigweed; [19],30
same,Rice plant response rating,rice [1],50
same,Wheat plant response rating,"wheat; 500 g ai/ha, scale 0 to 100, 0 no effect, 100 complete control, preemergence",70
same,Wheat plant response rating,wheat; [18],0
same,Wheat plant response rating,wheat; [19],0
same,"Plant response rating (0 to 100 scale), Cocklebur",cocklebur; [17],10
same,Cocklebur plant response rating,cocklebur; [18],20
same,Cocklebur plant response rating,cocklebur; [19],10
same,Ducksalad plant response rating,"ducksalad [7]; 62 g ai/ha, scale 0 to 100",20
same,Ducksalad plant response rating,ducksalad [7]; [20],40
same,Ducksalad plant response rating,ducksalad [7]; [21],40
same,"Plant response rating, Ducksalad",ducksalad [7]; [22],40
same,Barnyardgrass plant response rating,"barnyardgrass [8]; 62 g ai/ha, scale 0 to 100 (0 no effect, 100 complete control)",0
same,Barnyardgrass plant response rating,barnyardgrass [8]; [20],0
same,Barnyardgrass plant response rating,barnyardgrass [8]; [21],0
same,"Plant response rating, Barnyardgrass",barnyardgrass [8]; [22],20
same,Blackgrass plant response rating,blackgrass; [18],20
same,Blackgrass plant response rating,blackgrass; [19],0
same,"Sedge, Umbrella plant response rating",[2],90
same,"Plant response rating (0 to 100 scale), Surinam Grass",Surinam grass; [17],30
same,Surinam Grass plant response rating,Surinam grass; [18],20
same,Surinam Grass plant response rating,Surinam grass; [19],0
same,"Plant response rating (0 to 100 scale), Corn",corn; [17],0
same,Corn plant response rating,corn; [18],20
same,Corn plant response rating,corn; [19],10
same,"Plant response rating (0 to 100 scale), Crabgrass, Large",large crabgrass; [17],80
same,"Crabgrass, Large plant response rating",large crabgrass; [18],20
same,"Crabgrass, Large plant response rating",large crabgrass; [19],10
same,Barnyardgrass plant response rating,barnyardgrass [3],80
same,Rice plant response rating,"rice [9]; 62 g ai/ha, scale 0 to 100",0
same,Rice plant response rating,rice [9]; [20],0
same,Rice plant response rating,rice [9]; [21],20
same,"Plant response rating, Rice",rice [9]; [22],40
same,"Sedge, Umbrella plant response rating","[10]; 62 g ai/ha, scale 0 to 100",20
same,"Sedge, Umbrella plant response rating",[10]; [20],60
same,"Sedge, Umbrella plant response rating",[10]; [21],75
same,"Plant response rating, Sedge, Umbrella",[10]; [22],75
same,"Oat, Wild plant response rating",wild oat; [18],0
same,"Oat, Wild plant response rating",wild oat; [19],0
same,"Plant response rating (0 to 100 scale), Lambsquarters",lambsquarters; [17],80
same,Lambsquarters plant response rating,"lambsquarters; Postemergence, 500 g ai/ha",60
same,"Plant response rating (0 to 100 scale), Foxtail, Giant",giant foxtail; [17],30
same,"Foxtail, Giant plant response rating",giant foxtail; [18],30
same,"Foxtail, Giant plant response rating",giant foxtail; [19],10
same,"Plant response rating (0 to 100 scale), Morningglory",morningglory; [17],30
same,Morningglory plant response rating,morningglory; [18],60
same,Morningglory plant response rating,morningglory; [19],20
same,"Plant response rating (0 to 100 scale), Barnyardgrass",barnyardgrass [5]; [17],40
same,Barnyardgrass plant response rating,"barnyardgrass [5]; Postemergence, 125 g ai/ha",0
same,Barnyardgrass plant response rating,"barnyardgrass [5]; Postemergence, 500 g ai/ha",10
same,"Plant response rating (0 to 100 scale), Velvetleaf",velvetleaf; [17],10
same,Velvetleaf plant response rating,velvetleaf; [18],20
same,Velvetleaf plant response rating,velvetleaf; [19],20
same,Ducksalad plant response rating,ducksalad [6],80
